According to patent US11899025B2, “Pharmaceutical composition for preventing or treating neurodegenerative diseases comprising COX2 acetylating agent as active ingredient” (KYUNGPOOK NATIONAL UNIVERSITY INDUSTRY-ACADEMIC COOPERATION …, priority 2018, dated 2024):

What was measured:
NP-C mice = assay: Niemann-Pick (NP-C) animal model: immunofluorescence, Rota-rod, Beam test; assay type: in vivo, mouse; conditions: 1 month-old NPC mice, 5 mg/kg daily for 4 weeks, subcutaneous
From the text: (§1) It has been approved for mouse experiments by the Kyungpook National University Institutional Animal Care and Use Committee (IACUC). A transgenic mouse line overexpressing APPswe (hAPP695swe) or PS1 (presenilin-1M146V) based on C57BL/6 mice (Charles River, UK) was used. [Hereinafter, APP mouse: mouse overexpressing APPswe, PS1 mouse: mouse overexpressing presenilin-1M146V; GlaxoSmithKline]. As an Alzheimer's (AD) animal model, SphK1 tg (SphK1 gene overexpressing mouse) was crossed with APP mice and APP/PS1 mice to prepare APP/PS1/SphK1 tg mice. Niemanpick (NP-C) animal model, Balb/C (Orient, Wild type), NPC mutant mouse lacking NPC1 gene (Provided by Riken, Japan, NP-C mice; less weight than normal mice of the same age, and severe motor function loss from 4 to 6 weeks of age, limb tremors and seizures appear, and lifespan is approximately 9 to 10 weeks. Is) was used. As an animal model for amyotrophic lateral sclerosis (ALS), a transgenic mouse (FUS) line overexpressing RUS R521C based on C57BL/6 mice (Charles River, UK) was used.
(§2) After fixing the cerebral and hippocampus of the mouse, anti-20G10 (mouse, 1:1000) against amyloid-β (Aβ) 42 and anti-G30 (rabbit, 1:1000) against Aβ 40, anti-MAP2 (chicken, 1:2000), anti-Synaptophysin (mouse, 1:100), anti-Synapsin1 (rabbit, 1:500), anti-PSD95 (mouse, 1:100), anti-Iba-1 (rabbit, 1:500), Anti-GFAP (rabbit, 1:500) was cultured together. The site was analyzed using a laser scanning confocal microscope or Olympus BX51 microscope equipped with Fluoview SV1000 imaging software (Olympus FV1000, Japan). Metamorph software (Molecular Devices) was used to quantify the percentage of the area of the stained area relative to the area of the total tissue.
(§3) To check the motor ability of each experimental group mice, a Rota-rod, Beam test, Tail suspension test, and Hanging wired test were performed. […] The endurance time of the experimental animal was measured in seconds, and the average value was recorded. […] In the Beam test, the time taken to move to the end point after placing the mouse at the start point of a 12 mm wide bar was measured. […]

APP/PS1 mice = assay: Alzheimer's animal model (APP/PS1 mice): immunofluorescence, Thioflavin S, Morris Water Maze; assay type: in vivo, mouse; conditions: 7-month-old APP/PS1 mice, 5 mg/kg N-acetyl sphingosine, 1 mg/kg FTY720 or 3 uM S1P daily for 4 weeks, intraperitoneal
From the text: as §1, §2
In order to confirm the potential effect on learning and memory, MWM (Morris water maze) and fear conditioning experiments were performed. MWM learned the task 4 times a day for 10 days for the mice, the platform was removed on the 11th day, and a probe trial was performed. On the first day of Fear conditioning, the mice were placed in a conditioning chamber, and sound stimulation (10 kHz, 70 dB) and electrical stimulation (0.3 mA, 1 s) were given. On the second day, memory for the space was checked without stimulation in the same conditioning chamber as on the first day, and on the third day, a memory test for fear was performed when only sound stimulation was given in another conditioning chamber. An open field test was performed to evaluate motor ability and immediate activity. In the open field test, the mice were placed in a square box for 10 minutes to measure the overall exercise power, time, and distance.
(§4) In order to measure the neuroinflammatory resolution factor, after culturing neurons from mouse cerebrum, CM was prepared by treatment with 10 nM N-acetyl sphingosine 1 phosphate (Toronto Research chemicals, C262710) and N-acetyl sphingosine (Sigma, 01912). For COX2 acetylation analysis, neurons were cultured from mouse cerebrum and then treated with 2 uCi [^14C]N-acetyl sphingosine (ARC, ARC1024). In addition, for in vivo experiments, 7-month-old APP/PS1 mice were injected with 5 mg/kg N-acetyl sphingosine (Sigma, 01912), 1 mg/kg FTY720 and 3 uM S1P daily for 4 weeks via intraperitoneal injection. 1 month-old NPC mice were injected with 5 mg/kg N-acetyl sphingosine (Sigma, 01912) and 2-month-old FUS mice with 30 mg/kg N-acetyl sphingosine (Sigma, 01912) daily for 4 weeks via subcutaneous injection.
The present inventors confirmed AD lesions by injecting N-acetyl sphingosine, one of the COX2 acetylating agents identified through the above experiment, into an APP/PS1 animal model. First, in order to determine the effect of N-acetyl sphingosine on the neuroinflammatory response by secreting neuroinflammatory resolution factor, changes in microglia and astrocytes were observed. […]

APP/PS1 neurons = assay: neuroinflammatory resolution factor (SPMs) secretion in APP/PS1 neurons after COX2 acetylating agent treatment; assay type: cell-based, mouse; conditions: 10 nM; FIG. 8b
Protocol: A commercially available ELISA kit (Biosource) was used, and the hemispheres of mice were homogenized and placed in a buffer containing 0.02M guanidine to prepare a sample for Aβ ELISA. In order to measure the neuroinflammatory resolution factor, conditioned media (CM) was prepared after culturing neurons from mouse cerebrum. Thereafter, according to the manufacturer's manual, ELISA for Aβ and SPM was performed.
as §4
First, in order to confirm whether the selected compounds promote the secretion of neuroinflammatory resolution factor in neurons, after treatment with N-acetyl sphingosine 1 phosphate or N-acetyl sphingosine in APP/PS1 neurons, the expression levels of neuroinflammatory resolution factor were confirmed. As a result, it was confirmed that the expression levels of LxA4 and RvE1 in neurons of APP/PS1 mice were recovered when treated with N-acetyl sphingosine 1 phosphate or N-acetyl sphingosine (FIG. 8b).

FUS R521C mice = assay: amyotrophic lateral sclerosis animal model (FUS R521C mice): immunofluorescence, Tail suspension, Rota-rod, Hanging wired test; assay type: in vivo, mouse; conditions: 2-month-old FUS mice, 30 mg/kg daily for 4 weeks, subcutaneous
From the text: as §1, §2, §3

## CCCCCCCCCCCCC/C=C/[C@@H](O)[C@H](CO)NC(C)=O [N-acetyl sphingosine]
NP-C mice; FIG. 10a
  microglia (Iba1) in brain cortex vs NP-C mice: remarkable decrease
NP-C mice; FIG. 10b
  astrocytes (GFAP) in brain cortex vs NP-C mice: remarkable decrease
NP-C mice; FIGS. 10c and d
  exercise capacity (Rota-rod, Beam test) vs NP-C mice: improved
APP/PS1 mice; FIG. 9a
  microglia (Iba1) in brain cortex vs APP/PS1 mice: remarkable decrease
APP/PS1 mice; FIG. 9b
  astrocytes (GFAP) in brain cortex vs APP/PS1 mice: remarkable decrease
APP/PS1 mice; FIG. 9c
  amount of Aβ / Aβ deposition (Thioflavin S) vs APP/PS1 mice: significantly lower
APP/PS1 mice; FIG. 9d
  memory and cognition (Morris Water Maze) vs APP/PS1 mice: improved
APP/PS1 neurons
  expression level of LxA4 in neurons of APP/PS1 mice: recovered
  expression level of RvE1 in neurons of APP/PS1 mice: recovered
FUS R521C mice; FIG. 11a
  activity of microglia (Iba1) vs FUS R521C mice: decreased
FUS R521C mice; FIG. 11b
  activity of astrocytes (GFAP) vs FUS R521C mice: decreased
FUS R521C mice; FIGS. 11c to e
  exercise capacity (Tail suspension, Rota-rod, Hanging wired test) vs FUS R521C mice: improved
